Source: ChEMBL document CHEMBL1201861, “Genomics of Drug Sensitity in Cancer screening data, Wellcome Trust Sanger Institute”

Test system: CTB-1
Assay: cells
Format: functional, cell-based, Homo sapiens
Settings: Homo sapiens, CTB-1
Description: SANGER: Inhibition of human CTB-1 cell growth in a cell viability assay.

Q: `NC(=O)c1cccc(-c2cc(Nc3ccc(OC(F)(F)F)cc3)ncn2)c1` was tested. Which IC50 did it give?
A: Its IC50 is > 1.28 µM.

Test system: Calu-6;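 further: growth of human Calu-6 cells, read out by a cell viability assay, IC50 marking inhibition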
Assay: cells
Format: functional, cell-based, Homo sapiens
Settings: Homo sapiens, Calu-6
Description: SANGER: Inhibition of human Calu-6 cell growth in a cell viability assay.

Q: With `NC(=O)c1cccc(-c2cc(Nc3ccc(OC(F)(F)F)cc3)ncn2)c1` as the compound, how does the IC50 read?
A: Its IC50 is > 1.28 µM.

Test system: D-502MG
Assay: cells
Format: functional, cell-based, Homo sapiens
Settings: Homo sapiens, D-502MG
Description: SANGER: Inhibition of human D-502MG cell growth in a cell viability assay.

Q: Which IC50 does the source give for `NC(=O)c1cccc(-c2cc(Nc3ccc(OC(F)(F)F)cc3)ncn2)c1` here?
A: Its IC50 is > 1.28 µM.

Test system: DB
Assay: cells
Format: functional, cell-based, Homo sapiens
Settings: Homo sapiens, DB
Description: SANGER: Inhibition of human DB cell growth in a cell viability assay.

Q: For `NC(=O)c1cccc(-c2cc(Nc3ccc(OC(F)(F)F)cc3)ncn2)c1`, which IC50 is on record?
A: Its IC50 is > 1.28 µM.

Test system: DEL;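 further: growth inhibition of the human DEL cell line, read out with a cell viability assay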
Assay: cells
Format: functional, cell-based, Homo sapiens
Settings: Homo sapiens, DEL
Description: SANGER: Inhibition of human DEL cell growth in a cell viability assay.

Q: Which IC50 does the source give for `NC(=O)c1cccc(-c2cc(Nc3ccc(OC(F)(F)F)cc3)ncn2)c1` here?
A: Its IC50 is > 1.28 µM.

Test system: EM-2;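 further: growth inhibition of EM-2 cells, read out with a cell viability assay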
Assay: cells
Format: functional, cell-based, Homo sapiens
Settings: Homo sapiens, EM-2
Description: SANGER: Inhibition of human EM-2 cell growth in a cell viability assay.

Q: For `NC(=O)c1cccc(-c2cc(Nc3ccc(OC(F)(F)F)cc3)ncn2)c1`, which IC50 is on record?
A: Its IC50 is 0.235 µM.

Test system: ES5;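 further: growth inhibition of human ES5 cells, read out by a cell viability assay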
Assay: cells
Format: functional, cell-based, Homo sapiens
Settings: Homo sapiens, ES5
Description: SANGER: Inhibition of human ES5 cell growth in a cell viability assay.

Q: How did the IC50 turn out when `NC(=O)c1cccc(-c2cc(Nc3ccc(OC(F)(F)F)cc3)ncn2)c1` was run?
A: Its IC50 is > 1.28 µM.

Test system: ES6;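 further: growth inhibition of human ES6 cells, read out with a cell viability assay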
Assay: cells
Format: functional, cell-based
Settings: Homo sapiens
Description: SANGER: Inhibition of human ES6 cell growth in a cell viability assay.

Q: Which IC50 does the source give for `NC(=O)c1cccc(-c2cc(Nc3ccc(OC(F)(F)F)cc3)ncn2)c1` here?
A: Its IC50 is > 1.28 µM.

Test system: ES8;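 further: growth inhibition of human ES8 cells, read out with a cell viability assay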
Assay: cells
Format: functional, cell-based, Homo sapiens
Settings: Homo sapiens, ES8
Description: SANGER: Inhibition of human ES8 cell growth in a cell viability assay.

Q: Which IC50 does the source give for `NC(=O)c1cccc(-c2cc(Nc3ccc(OC(F)(F)F)cc3)ncn2)c1` here?
A: The IC50 was > 1.28 µM.

Test system: EW-13;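 further: growth inhibition of EW-13 cells, read out with a cell viability assay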
Assay: cells
Format: functional, cell-based, Homo sapiens
Settings: Homo sapiens, EW-13; read-out: IC50
Description: SANGER: Inhibition of human EW-13 cell growth in a cell viability assay.

Q: `NC(=O)c1cccc(-c2cc(Nc3ccc(OC(F)(F)F)cc3)ncn2)c1` was tested. Which IC50 did it give?
A: Its IC50 is > 1.28 µM.

Test system: GAK;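 further: cell growth inhibition read out by a cell viability assay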
Assay: cells
Format: functional, cell-based, Homo sapiens
Settings: Homo sapiens, GAK
Description: SANGER: Inhibition of human GAK cell growth in a cell viability assay.

Q: With `NC(=O)c1cccc(-c2cc(Nc3ccc(OC(F)(F)F)cc3)ncn2)c1` as the compound, how does the IC50 read?
A: The IC50 was > 1.28 µM.

Test system: HDLM-2;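 further: cell viability assay measuring suppression of HDLM-2 proliferation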
Assay: cells
Format: functional, cell-based, Homo sapiens
Settings: Homo sapiens, HDLM-2
Description: SANGER: Inhibition of human HDLM-2 cell growth in a cell viability assay.

Q: `NC(=O)c1cccc(-c2cc(Nc3ccc(OC(F)(F)F)cc3)ncn2)c1` was tested. Which IC50 did it give?
A: The IC50 was > 1.28 µM.

Test system: HT-144
Assay: cells
Format: functional, cell-based, Homo sapiens
Settings: Homo sapiens, HT-144
Description: SANGER: Inhibition of human HT-144 cell growth in a cell viability assay.

Q: `NC(=O)c1cccc(-c2cc(Nc3ccc(OC(F)(F)F)cc3)ncn2)c1` was tested. Which IC50 did it give?
A: The IC50 was > 1.28 µM.

Test system: IST-MEL1;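 further: growth inhibition of the cell line, read out with a cell viability assay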
Assay: cells
Format: functional, cell-based, Homo sapiens
Settings: Homo sapiens, IST-MEL1
Description: SANGER: Inhibition of human IST-MEL1 cell growth in a cell viability assay.

Q: For `NC(=O)c1cccc(-c2cc(Nc3ccc(OC(F)(F)F)cc3)ncn2)c1`, which IC50 is on record?
A: Its IC50 is > 1.28 µM.

Test system: K5
Assay: cells
Format: functional, cell-based, Homo sapiens
Settings: Homo sapiens, K5
Description: SANGER: Inhibition of human K5 cell growth in a cell viability assay.

Q: `NC(=O)c1cccc(-c2cc(Nc3ccc(OC(F)(F)F)cc3)ncn2)c1` was tested. Which IC50 did it give?
A: Its IC50 is > 1.28 µM.

Test system: L-428
Assay: cells
Format: functional, cell-based, Homo sapiens
Settings: Homo sapiens, L-428
Description: SANGER: Inhibition of human L-428 cell growth in a cell viability assay.

Q: For `NC(=O)c1cccc(-c2cc(Nc3ccc(OC(F)(F)F)cc3)ncn2)c1`, which IC50 is on record?
A: The IC50 was > 1.28 µM.

Test system: LB2518-MEL;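 further: growth inhibition of human LB2518-MEL cells, measured with a cell viability assay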
Assay: cells
Format: functional, cell-based
Settings: Homo sapiens
Description: SANGER: Inhibition of human LB2518-MEL cell growth in a cell viability assay.

Q: For `NC(=O)c1cccc(-c2cc(Nc3ccc(OC(F)(F)F)cc3)ncn2)c1`, which IC50 is on record?
A: The IC50 was > 1.28 µM.

Test system: LB831-BLC;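 further: growth inhibition of LB831-BLC cells, read out with a cell viability assay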
Assay: cells
Format: functional, cell-based, Homo sapiens
Settings: Homo sapiens, LB831-BLC
Description: SANGER: Inhibition of human LB831-BLC cell growth in a cell viability assay.

Q: For `NC(=O)c1cccc(-c2cc(Nc3ccc(OC(F)(F)F)cc3)ncn2)c1`, which IC50 is on record?
A: The IC50 was > 1.28 µM.

Test system: LB996-RCC
Assay: cells
Format: functional, cell-based, Homo sapiens
Settings: Homo sapiens, LB996-RCC
Description: SANGER: Inhibition of human LB996-RCC cell growth in a cell viability assay.

Q: For `NC(=O)c1cccc(-c2cc(Nc3ccc(OC(F)(F)F)cc3)ncn2)c1`, which IC50 is on record?
A: The IC50 was > 1.28 µM.

Test system: LS-123
Assay: cells
Format: functional, cell-based, Homo sapiens
Settings: Homo sapiens, LS-123
Description: SANGER: Inhibition of human LS-123 cell growth in a cell viability assay.

Q: With `NC(=O)c1cccc(-c2cc(Nc3ccc(OC(F)(F)F)cc3)ncn2)c1` as the compound, how does the IC50 read?
A: Its IC50 is > 1.28 µM.

Test system: LXF-289 cell line
Assay: cells
Format: functional, cell-based
Settings: Homo sapiens
Description: SANGER: Inhibition of human LXF-289 cell growth in a cell viability assay.

Q: `NC(=O)c1cccc(-c2cc(Nc3ccc(OC(F)(F)F)cc3)ncn2)c1` was tested. Which IC50 did it give?
A: The IC50 was > 1.28 µM.

Test system: MEG-01;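 further: growth inhibition of MEG-01 cells, read out by a cell viability assay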
Assay: cells
Format: functional, cell-based, Homo sapiens
Settings: Homo sapiens, MEG-01
Description: SANGER: Inhibition of human MEG-01 cell growth in a cell viability assay.

Q: How did the IC50 turn out when `NC(=O)c1cccc(-c2cc(Nc3ccc(OC(F)(F)F)cc3)ncn2)c1` was run?
A: Its IC50 is 0.503 µM.

Test system: MHH-NB-11;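 further: growth inhibition of human MHH-NB-11 cells, read out by a cell viability assay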
Assay: cells
Format: functional, cell-based, Homo sapiens
Settings: Homo sapiens, MHH-NB-11
Description: SANGER: Inhibition of human MHH-NB-11 cell growth in a cell viability assay.

Q: How did the IC50 turn out when `NC(=O)c1cccc(-c2cc(Nc3ccc(OC(F)(F)F)cc3)ncn2)c1` was run?
A: Its IC50 is > 1.28 µM.

Test system: ML-2;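 further: growth inhibition of ML-2 cells, measured with a cell viability readout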
Assay: cells
Format: functional, cell-based, Homo sapiens
Settings: Homo sapiens, ML-2
Description: SANGER: Inhibition of human ML-2 cell growth in a cell viability assay.

Q: With `NC(=O)c1cccc(-c2cc(Nc3ccc(OC(F)(F)F)cc3)ncn2)c1` as the compound, how does the IC50 read?
A: The IC50 was > 1.28 µM.

Test system: MOLT-4;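 further: growth inhibition of MOLT-4 cells, determined with a cell viability readout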
Assay: cells
Format: functional, cell-based, Homo sapiens
Settings: Homo sapiens, MOLT-4
Description: SANGER: Inhibition of human MOLT-4 cell growth in a cell viability assay.

Q: Which IC50 does the source give for `NC(=O)c1cccc(-c2cc(Nc3ccc(OC(F)(F)F)cc3)ncn2)c1` here?
A: Its IC50 is > 1.28 µM.

Test system: MS-1
Assay: cells
Format: functional, cell-based, Homo sapiens
Settings: Homo sapiens, MS-1
Description: SANGER: Inhibition of human MS-1 cell growth in a cell viability assay.

Q: `NC(=O)c1cccc(-c2cc(Nc3ccc(OC(F)(F)F)cc3)ncn2)c1` was tested. Which IC50 did it give?
A: The IC50 was > 1.28 µM.

Test system: NB13;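 further: cell viability readout measuring growth inhibition of human NB13 cells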
Assay: cells
Format: functional, cell-based, Homo sapiens
Settings: Homo sapiens, NB13
Description: SANGER: Inhibition of human NB13 cell growth in a cell viability assay.

Q: How did the IC50 turn out when `NC(=O)c1cccc(-c2cc(Nc3ccc(OC(F)(F)F)cc3)ncn2)c1` was run?
A: The IC50 was > 1.28 µM.

Test system: NB69;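 further: growth inhibition of NB69 cells, determined by a cell viability assay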
Assay: cells
Format: functional, cell-based, Homo sapiens
Settings: Homo sapiens, NB69
Description: SANGER: Inhibition of human NB69 cell growth in a cell viability assay.

Q: How did the IC50 turn out when `NC(=O)c1cccc(-c2cc(Nc3ccc(OC(F)(F)F)cc3)ncn2)c1` was run?
A: The IC50 was > 1.28 µM.

Test system: NCI-H209;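 further: growth inhibition of human NCI-H209 cells, measured by a cell viability assay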
Assay: cells
Format: functional, cell-based, Homo sapiens
Settings: Homo sapiens, NCI-H209
Description: SANGER: Inhibition of human NCI-H209 cell growth in a cell viability assay.

Q: With `NC(=O)c1cccc(-c2cc(Nc3ccc(OC(F)(F)F)cc3)ncn2)c1` as the compound, how does the IC50 read?
A: Its IC50 is > 1.28 µM.

Test system: NCI-H82;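 further: growth inhibition of NCI-H82 cells, measured with a cell viability readout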
Assay: cells
Format: functional, cell-based, Homo sapiens
Settings: Homo sapiens, NCI-H82
Description: SANGER: Inhibition of human NCI-H82 cell growth in a cell viability assay.

Q: `NC(=O)c1cccc(-c2cc(Nc3ccc(OC(F)(F)F)cc3)ncn2)c1` was tested. Which IC50 did it give?
A: The IC50 was > 1.28 µM.

Test system: NMC-G1;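 further: growth inhibition of the NMC-G1 cell line, measured with a cell viability read-out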
Assay: cells
Format: functional, cell-based, Homo sapiens
Settings: Homo sapiens, NMC-G1
Description: SANGER: Inhibition of human NMC-G1 cell growth in a cell viability assay.

Q: `NC(=O)c1cccc(-c2cc(Nc3ccc(OC(F)(F)F)cc3)ncn2)c1` was tested. Which IC50 did it give?
A: Its IC50 is > 1.28 µM.

Test system: NTERA-2-cl-D1;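 further: inhibition of cell growth, measured with a cell viability assay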
Assay: cells
Format: functional, cell-based, Homo sapiens
Settings: Homo sapiens, NTERA-2-cl-D1
Description: SANGER: Inhibition of human NTERA-S-cl-D1 cell growth in a cell viability assay.

Q: Which IC50 does the source give for `NC(=O)c1cccc(-c2cc(Nc3ccc(OC(F)(F)F)cc3)ncn2)c1` here?
A: The IC50 was > 1.28 µM.

Test system: Ramos-2G6-4C10;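 further: growth inhibition of the cell line, measured by a cell viability read-out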
Assay: cells
Format: functional, cell-based, Homo sapiens
Settings: Homo sapiens, Ramos-2G6-4C10
Description: SANGER: Inhibition of human Ramos-2G6-4C10 cell growth in a cell viability assay.

Q: `NC(=O)c1cccc(-c2cc(Nc3ccc(OC(F)(F)F)cc3)ncn2)c1` was tested. Which IC50 did it give?
A: Its IC50 is > 1.28 µM.

Test system: SF-539;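 further: Read-out is a cell viability assay, with IC50 reflecting inhibition of cell growth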
Assay: cells
Format: functional, cell-based, Homo sapiens
Settings: Homo sapiens, SF-539
Description: SANGER: Inhibition of human SF539 cell growth in a cell viability assay.

Q: `NC(=O)c1cccc(-c2cc(Nc3ccc(OC(F)(F)F)cc3)ncn2)c1` was tested. Which IC50 did it give?
A: Its IC50 is > 1.28 µM.

Test system: SHP77;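 further: growth inhibition of human SHP-77 cells measured by a cell viability assay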
Assay: cells
Format: functional, cell-based, Homo sapiens, SHP-77
Settings: Homo sapiens, SHP77
Description: SANGER: Inhibition of human SHP-77 cell growth in a cell viability assay.

Q: For `NC(=O)c1cccc(-c2cc(Nc3ccc(OC(F)(F)F)cc3)ncn2)c1`, which IC50 is on record?
A: The IC50 was > 1.28 µM.

Test system: SJSA-1;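 further: growth inhibition of human SJSA-1 cells, read out through a cell viability measurement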
Assay: cells
Format: functional, cell-based, Homo sapiens
Settings: Homo sapiens, SJSA-1
Description: SANGER: Inhibition of human SJSA-1 cell growth in a cell viability assay.

Q: For `NC(=O)c1cccc(-c2cc(Nc3ccc(OC(F)(F)F)cc3)ncn2)c1`, which IC50 is on record?
A: The IC50 was > 1.28 µM.

Test system: SK-LMS-1;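 further: growth inhibition of human SK-LMS-1 cells, read out with a cell viability assay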
Assay: cells
Format: functional, cell-based, Homo sapiens
Settings: Homo sapiens, SK-LMS-1
Description: SANGER: Inhibition of human SK-LMS-1 cell growth in a cell viability assay.

Q: For `NC(=O)c1cccc(-c2cc(Nc3ccc(OC(F)(F)F)cc3)ncn2)c1`, which IC50 is on record?
A: The IC50 was > 1.28 µM.

Test system: SNB-75;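 further: cell viability assay measuring growth inhibition of human SNB-75 cells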
Assay: cells
Format: functional, cell-based, Homo sapiens
Settings: Homo sapiens, SNB-75
Description: SANGER: Inhibition of human SNB75 cell growth in a cell viability assay.

Q: How did the IC50 turn out when `NC(=O)c1cccc(-c2cc(Nc3ccc(OC(F)(F)F)cc3)ncn2)c1` was run?
A: Its IC50 is > 1.28 µM.

Test system: SW684;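 further: growth inhibition of human SW684 cells, measured by a cell viability assay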
Assay: cells
Format: functional, cell-based, Homo sapiens
Settings: Homo sapiens, SW684; read-out: IC50
Description: SANGER: Inhibition of human SW684 cell growth in a cell viability assay.

Q: How did the IC50 turn out when `NC(=O)c1cccc(-c2cc(Nc3ccc(OC(F)(F)F)cc3)ncn2)c1` was run?
A: Its IC50 is > 1.28 µM.

Test system: SW 954;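 further: growth inhibition of SW954 human cancer cells, read out as cell viability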
Assay: cells
Format: functional, cell-based, Homo sapiens
Settings: Homo sapiens, SW 954
Description: SANGER: Inhibition of human SW954 cell growth in a cell viability assay.

Q: `NC(=O)c1cccc(-c2cc(Nc3ccc(OC(F)(F)F)cc3)ncn2)c1` was tested. Which IC50 did it give?
A: Its IC50 is > 1.28 µM.

Test system: SW982;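 further: growth inhibition of SW982 cells, read out with a cell viability assay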
Assay: cells
Format: functional, cell-based
Settings: Homo sapiens
Description: SANGER: Inhibition of human SW982 cell growth in a cell viability assay.

Q: How did the IC50 turn out when `NC(=O)c1cccc(-c2cc(Nc3ccc(OC(F)(F)F)cc3)ncn2)c1` was run?
A: Its IC50 is > 1.28 µM.

Test system: TE-1;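 further: growth inhibition of the human TE-1 cell line, read out with a cell viability assay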
Assay: cells
Format: functional, cell-based, Homo sapiens
Settings: Homo sapiens, TE-1
Description: SANGER: Inhibition of human TE-1 cell growth in a cell viability assay.

Q: For `NC(=O)c1cccc(-c2cc(Nc3ccc(OC(F)(F)F)cc3)ncn2)c1`, which IC50 is on record?
A: The IC50 was > 1.28 µM.

Test system: A3-KAW;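 further: growth inhibition of human A3-KAW cells, read out with a cell viability assay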
Assay: cells
Format: functional, cell-based, Homo sapiens
Settings: Homo sapiens, A3-KAW
Description: SANGER: Inhibition of human A3-KAW cell growth in a cell viability assay.

Q: With `NC(=O)c1cccc(-c2cc(Nc3ccc(OC(F)(F)F)cc3)ncn2)c1` as the compound, how does the IC50 read?
A: Its IC50 is > 1.28 µM.

Test system: A388;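 further: growth inhibition of human A388 cells, read out with a cell viability assay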
Assay: cells
Format: functional, cell-based
Settings: Homo sapiens
Description: SANGER: Inhibition of human A388 cell growth in a cell viability assay.

Q: How did the IC50 turn out when `NC(=O)c1cccc(-c2cc(Nc3ccc(OC(F)(F)F)cc3)ncn2)c1` was run?
A: Its IC50 is > 1.28 µM.

Test system: A704;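 further: growth inhibition of human A704 cells, read out with a cell viability assay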
Assay: cells
Format: functional, cell-based
Settings: Homo sapiens
Description: SANGER: Inhibition of human A704 cell growth in a cell viability assay.

Q: `NC(=O)c1cccc(-c2cc(Nc3ccc(OC(F)(F)F)cc3)ncn2)c1` was tested. Which IC50 did it give?
A: Its IC50 is > 1.28 µM.

Test system: AM-38;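 further: growth inhibition of AM-38 cells of human origin, read out by a cell viability assay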
Assay: cells
Format: functional, cell-based, Homo sapiens
Settings: Homo sapiens, AM-38
Description: SANGER: Inhibition of human AM-38 cell growth in a cell viability assay.

Q: With `NC(=O)c1cccc(-c2cc(Nc3ccc(OC(F)(F)F)cc3)ncn2)c1` as the compound, how does the IC50 read?
A: Its IC50 is > 1.28 µM.

Test system: Becker;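 further: growth inhibition of Becker cells, read out with a cell viability assay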
Assay: cells
Format: functional, cell-based, Homo sapiens
Settings: Homo sapiens, Becker
Description: SANGER: Inhibition of human Becker cell growth in a cell viability assay.

Q: For `NC(=O)c1cccc(-c2cc(Nc3ccc(OC(F)(F)F)cc3)ncn2)c1`, which IC50 is on record?
A: Its IC50 is > 1.28 µM.

Test system: TE-6;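 further: growth inhibition of TE-6 cells, read out with a cell viability assay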
Assay: cells
Format: functional, cell-based, Homo sapiens
Settings: Homo sapiens, TE-6
Description: SANGER: Inhibition of human TE-6 cell growth in a cell viability assay.

Q: For `NC(=O)c1cccc(-c2cc(Nc3ccc(OC(F)(F)F)cc3)ncn2)c1`, which IC50 is on record?
A: The IC50 was > 1.28 µM.

Test system: TE-9;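 further: cell growth inhibition, measured with a cell viability readout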
Assay: cells
Format: functional, cell-based, Homo sapiens
Settings: Homo sapiens, TE-9
Description: SANGER: Inhibition of human TE-9 cell growth in a cell viability assay.

Q: For `NC(=O)c1cccc(-c2cc(Nc3ccc(OC(F)(F)F)cc3)ncn2)c1`, which IC50 is on record?
A: Its IC50 is > 1.28 µM.

Test system: TGW;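 further: growth inhibition of human TGW cells, read out with a cell viability assay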
Assay: cells
Format: functional, cell-based, Homo sapiens
Settings: Homo sapiens, TGW
Description: SANGER: Inhibition of human TGW cell growth in a cell viability assay.

Q: For `NC(=O)c1cccc(-c2cc(Nc3ccc(OC(F)(F)F)cc3)ncn2)c1`, which IC50 is on record?
A: Its IC50 is > 1.28 µM.

Test system: TK-10;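 further: growth inhibition of TK-10 cells, read out in a cell viability assay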
Assay: cells
Format: functional, cell-based, Homo sapiens
Settings: Homo sapiens, TK-10
Description: SANGER: Inhibition of human TK10 cell growth in a cell viability assay.

Q: Which IC50 does the source give for `NC(=O)c1cccc(-c2cc(Nc3ccc(OC(F)(F)F)cc3)ncn2)c1` here?
A: Its IC50 is > 1.28 µM.
